According to patent publication US4572913A, “Use of 3-(arylmethyleneamino)-1-aryl-2-pyrazolines in the prophylaxis and treatment of inflammation, pain, pyresis, and asthma” (Burroughs Wellcome Co., priority 1980, dated 1986):

How the values were obtained:
[1] = target: lipoxygenase; assay: inhibition of lipoxygenase, enzyme assay according to the method of Blackwell and Flower; type: biochemical
[2] = target: cyclo-oxygenase; assay: inhibition of cyclo-oxygenase, enzyme assay according to the method of Blackwell and Flower; type: biochemical
Sequence of cyclo-oxygenase (P23219 24-599): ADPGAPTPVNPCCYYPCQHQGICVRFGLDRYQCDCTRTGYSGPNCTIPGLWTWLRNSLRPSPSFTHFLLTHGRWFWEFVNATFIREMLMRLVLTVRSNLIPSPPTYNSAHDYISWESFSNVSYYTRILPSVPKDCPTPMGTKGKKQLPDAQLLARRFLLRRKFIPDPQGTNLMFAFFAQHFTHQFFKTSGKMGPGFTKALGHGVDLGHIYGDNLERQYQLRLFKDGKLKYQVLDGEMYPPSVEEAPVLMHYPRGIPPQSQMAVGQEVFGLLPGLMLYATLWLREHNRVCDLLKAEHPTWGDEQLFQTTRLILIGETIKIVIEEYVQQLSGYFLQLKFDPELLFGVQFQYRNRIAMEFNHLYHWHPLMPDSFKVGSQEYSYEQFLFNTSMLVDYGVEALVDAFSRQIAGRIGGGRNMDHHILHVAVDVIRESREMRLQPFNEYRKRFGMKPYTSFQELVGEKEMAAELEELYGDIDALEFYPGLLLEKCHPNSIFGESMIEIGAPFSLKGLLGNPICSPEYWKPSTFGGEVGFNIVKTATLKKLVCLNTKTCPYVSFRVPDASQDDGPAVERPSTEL

Structure (SMILES)	IC50 [1]	IC50 [2]
O=C(O)CCCCOc1cccc(O)c1C=NC1=NN(c2cccc(C(F)(F)F)c2)CC1 [Example 1, 3-(2-4'-carboxybutoxy-6-hydroxybenzylideneamino)-1-(3-trifluoromethylphenyl)-2-pyrazoline]	10000 to 20000 nM	< 3000 nM
FC(F)(F)c1cccc(N2CCC(N=Cc3ccccn3)=N2)c1 [Example 2, 3-(2-pyridylmethyleneamino)-1-(3-trifluoromethylphenyl)-2-pyrazoline]	~3000 nM	1000 nM
FC(F)(F)c1cccc(N2CCC(N=Cc3cccc4ccccc34)=N2)c1 [Example 7, 3-(1-naphthylmethyleneamino)-1-(3-trifluoromethylphenyl)-2-pyrazoline]	6000 nM	10000 nM
CC(C)(C)c1cccc(N2CCC(N)=N2)c1 [Example 13, 3-Amino-1-(3-t-butylphenyl)-2-pyrazoline]	< 1000 nM	< 1000 nM
Oc1ccccc1C=NC1=NN(c2cccc(C(F)(F)F)c2)CC1 [Example 4, 3-salicylideneamino-1-(3-trifluoromethylphenyl)-2-pyrazoline]	~3000 nM	~3000 nM
Oc1ccccc1C=NC1=NN(c2ccc(Br)c(C(F)(F)F)c2)CC1 [Example 11, 1-(4-bromo-3-trifluoromethylphenyl)-3-(2-hydroxybenzylideneamino)-2-pyrazoline]	> 10000 nM	~5000 nM
FC(F)(F)c1cccc(N2CCC(N=Cc3ccccc3)=N2)c1 [Example 15, 3-Benzylideneamino-1-(3-trifluoromethylphenyl)-2-pyrazoline]	< 1000 nM	~3000 nM
Cc1ccc(C=NC2=NN(c3ccc4ccccc4c3)CC2)cc1 [Example 8, 3-(4-methylbenzylideneamino)-1-(2-naphthyl)-2-pyrazoline]	12000 nM	5000 nM
FC(F)(F)c1cccc(N2CCC(N=Cc3ccc[nH]3)=N2)c1 [Example 3, 3-(2-pyrrolylmethyleneamino)-1-(3-trifluoromethylphenyl)-2-pyrazoline]	1000 nM	< 1000 nM
CC1CN(c2cccc(C(F)(F)F)c2)N=C1N=Cc1ccccc1O (stereo not shown) [Example 18, 4-Methyl-3-salicylideneamino-1-(3-trifluoromethylphenyl)-2-pyrazoline]	~1000 nM	~1000 nM
COc1ccc(C=NC2=NN(c3ccc(Br)c(C(F)(F)F)c3)CC2)cc1 [Example 12, 1-(4-bromo-3-trifluoromethylphenyl)-3-(4-methoxybenzylideneamino)-2-pyrazoline]	~1000 nM	~1000 nM
